Test results: PubChem BioAssay AID850 (SRMLSC, 2007)
Activity calls are given as the source filed them. The rule behind the calls is not given here.

How the values were obtained:
[1] = test system: Saccharomyces cerevisiae growth inhibition, permissive control; experiment: yeast lifespan-shortening chemical project counter-assay, dose-response inhibition of growth under permissive conditions (AID 850);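 note: growth read as optical density after one day of incubation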
[2] = as above; conditions: Saccharomyces cerevisiae growth inhibition, permissive control, measured here: maximum growth inhibition, stronger effect = higher value

SMILES	IC50 [1]	inhibition ([2]; at 50 µM) [%]	also measured
c1ccc(-c2csc3nnc(SCc4ccc5c(c4)OCO5)n23)cc1	> 100 µM (inactive)	–	inhibition ([2]; at 0.781 µM): 9.45%
Cc1nc2c(c(C)c1C#N)C(=O)c1ccccc1-2	> 100 µM (inactive)	16	–
O=C(ONC1=NCCCCC1)c1ccc(Cl)cc1	7.02 µM	99.8	–
CC(C)(C)C(=O)O/N=C1/C(=O)N(c2ccccc2)c2ccccc21	42.9 µM	–	inhibition ([2]; at 25 µM): 52.3%
O=c1oc2ccccc2cc1-c1cn2cccnc2n1	> 100 µM (inactive)	–	inhibition ([2]; at 12.5 µM): 13.2%
CCOC(=O)C1CCCCN1C(=O)CCc1c(C)nc2cc(-c3ccccc3)nn2c1C (stereo unspecified)	> 100 µM (inactive)	–	inhibition ([2]; at 25 µM): 21.6%
O=C(Nc1cccc(N=Cc2cc(Cl)cc(Br)c2O)c1)c1ccco1	25.8 µM	89.6	–
COc1ccc(CCNC(=O)c2cnn3c(C(F)F)cc(C)nc23)cc1OC	> 100 µM (inactive)	–	inhibition ([2]; at 3.125 µM): -1.3%
CC(C)(C)c1ccc(-c2nc(-c3ccncc3)no2)cc1	47 µM	48.7	–
COc1ccc(-c2nnc3sc(C(C)N4C(=O)c5ccccc5C4=O)nn23)cc1 (stereo unspecified)	> 100 µM (inactive)	–	inhibition ([2]; at 6.25 µM): 14%
Cc1nn(-c2ccc(F)cc2)c2sc(C(=O)O)cc12	49.1 µM	60.6	–
O=C1CCN2C=Nc3cccc4ccc1c2c34	> 100 µM (inactive)	–	inhibition ([2]; at 25 µM): 26%
Oc1c(Cl)cc(Cl)c2c1NCCC2	15.9 µM	99.8	–
CN(c1ccc(O)cc1)c1nc(-c2ccccc2)cs1	> 100 µM (inactive)	–	inhibition ([2]; at 0.781 µM): 9.5%
COC(=O)Cn1c2ccc(C)cc2c2nc(C)sc21	> 100 µM (inactive)	16	–
Nc1c(Cl)ncnc1N/N=C/c1ccccn1	8.45 µM	99.2	–
CCOC(=O)CSc1nnc(CSc2nc(N)c3c(C)c(C)sc3n2)n1-c1ccccc1	> 100 µM (inactive)	–	inhibition ([2]; at 0.391 µM): 7.59%
Clc1ccc(COC(Cn2ccnc2)c2ccc(Cl)cc2Cl)cc1 (stereo unspecified)	0.705 µM	100	–
COc1cccc2c(=O)c3c(cnn3C)n(C)c12	> 100 µM (inactive)	–	inhibition ([2]; at 25 µM): 21.2%
Cc1cc(N2CCN(c3cccc(C)c3C)CC2)nc(-c2ccccc2)n1	37.3 µM	93	–
CC(C)c1ccc(NC(=S)NCCc2c[nH]c3ccccc23)cc1	> 100 µM (inactive)	–	inhibition ([2]; at 3.125 µM): 20.3%

SMILES	IC50 [1]	inhibition ([2]; at 50 µM) [%]	also measured
CCc1oc2ccccc2c1C(=O)c1cc(Br)c(O)c(Br)c1	36.1 µM	87.7	–
O=C(O)CCC(=O)N1CCN(c2nc(-c3ccccc3Cl)c3cc(Br)ccc3n2)CC1	32 µM	98.3	–
Nc1nonc1C(=O)NCCN=Cc1cc(Cc2ccccc2)cc(Br)c1O	> 100 µM (inactive)	22.4	–
CCCCSc1nc(C)c(C(C)=O)cc1C#N	> 100 µM (inactive)	–	inhibition ([2]; at 12.5 µM): 3.31%
CCCCOC(=O)n1c(=S)oc2cc(Cl)ccc21	14.5 µM	99.8	–
COc1ccc2c(c1)[nH]c1c(Cl)ncnc12	> 100 µM (inactive)	–	inhibition ([2]; at 0.195 µM): 21.3%
Cc1ccc(C)c(-n2nnnc2SCC(=O)Nc2cccc(-c3nnc4n3CCCCC4)c2)c1	> 100 µM (inactive)	17.5	–
Oc1cccc2ccc(/C=C/c3cccs3)nc12	37.4 µM	67.1	–
Oc1ccc(COCc2ccccc2)c2cccnc12	6.07 µM	99.4	–
O=C(C1=C(O)/C(=C/c2ccc(O)cc2)CCC1)C(F)(F)F	> 100 µM (inactive)	–	inhibition ([2]; at 0.195 µM): 7.72%
CC1=CC(=O)c2ccccc2C1=O	17.7 µM	88.6	–
Cn1cccc1C(=O)Nc1nc(-c2ccccn2)cs1	22.5 µM	97.9	–
O=C(/C=C/N1CCOCC1)c1ccc(-c2ccccc2)cc1	7.19 µM	–	inhibition ([2]; at 25 µM): 99.6%
OC(CNCCC1C=Nc2ccccc21)Cn1c2ccc(Cl)cc2c2cc(Cl)ccc21 (stereo unspecified)	18.4 µM	100	–
Oc1c(Cl)cc(Cl)c(Cl)c1Cc1c(O)c(Cl)cc(Cl)c1Cl	> 100 µM (inactive)	–	inhibition ([2]; at 6.25 µM): 23.3%
Oc1ccc(/C=N/N=C(c2ccccc2)c2ccccc2)c(O)c1O	30.1 µM	79.8	–
Cc1ccc(C(=O)CSC2=NC(N)=C(C#N)C3(CCCCC3)C2C(N)=O)cc1 (stereo unspecified)	> 100 µM (inactive)	–	inhibition ([2]; at 1.563 µM): 18.2%
COc1cc(-c2nc3ccc4ccccc4c3c3c2CCC3)ccc1O	> 100 µM (inactive)	–	inhibition ([2]; at 3.125 µM): 11.9%
CCOc1cc(/C=N/Nc2ccccc2Cl)ccc1OCC(=O)O	9.2 µM	99	–
Cc1cccc(C(=O)O/N=C/c2c(N3CCOCC3)n(C)c3ccccc23)c1	50.1 µM	48.1	–
N#C/C(=C/c1cn(-c2ccccc2)nc1-c1cccc(OCc2ccc(F)cc2)c1)C(=O)NCCCn1ccnc1	> 100 µM (inactive)	–	inhibition ([2]; at 0.391 µM): 4.5%

SMILES	IC50 [1]	inhibition ([2]; at 50 µM) [%]	also measured
Cc1ccc(Oc2nc(CN3CCOCC3)nc3sc4c(c23)CCC(C)C4)cc1C (stereo unspecified)	23.5 µM	93.4	–
O=C1C=C(c2ccccc2)C(=O)N1Nc1ccccc1	23.6 µM	85.8	–
COc1ccc(-c2cc(=O)n(-c3nc4ccccc4[nH]3)[nH]2)cc1	14.6 µM	98.2	–
CCN(CC)S(=O)(=O)c1ccc(NC(=O)CSc2cccc[n+]2[O-])cc1	31.6 µM	90.1	–
Cc1ccccc1C(=O)O/N=C/c1c(N2CCOCC2)n(C)c2ccccc12	50.7 µM	57.1	–
CCC(C)/C(C)=N/NC(=O)c1ccc(COc2ccc(Cl)c(C)c2)cc1 (stereo unspecified)	27 µM	83.8	–
O=C(COc1ccccc1)N1CCN=C1SCc1cccnc1	> 100 µM (inactive)	–	inhibition ([2]; at 0.781 µM): 11.2%
CCSc1nc2ccccc2n1S(=O)(=O)c1ccccc1	> 100 µM (inactive)	–	inhibition ([2]; at 3.125 µM): 26.4%
Cc1ccc(/C(N)=N/OC(=O)c2ccc(Cl)cc2Cl)cc1	19.8 µM	98.8	–
Cc1nc2ccccc2c2nc3ccccc3n12	38.5 µM	63.9	–
Cc1cccc(OCCN2CSC(=S)N(C)C2)c1	10.6 µM	87.3	–
O=[N+]([O-])c1ccc(Sc2nc3ccccc3o2)c([N+](=O)[O-])c1	50.1 µM	48.3	–
CCc1ccc(/C=C/C(=O)c2cc(Br)ccc(=O)c2O)cc1	13.3 µM	83.6	–
CCOC(=O)C1C(C)N=C2SCC(=O)N2C1c1cccc(Br)c1 (stereo unspecified)	> 100 µM (inactive)	–	inhibition ([2]; at 12.5 µM): 12.2%
O=[N+]([O-])c1cc(Cc2ccccc2)cc(C=Nc2ccc(N3CCOCC3)cc2)c1O	15 µM	–	inhibition ([2]; at 25 µM): 82.7%
CCCCCCCCC/C(=N\O)c1ccccn1	5.48 µM	101	–
Oc1ccc2ccccc2c1N=Nc1ccccn1	25 µM	97.5	–
Oc1c(Br)cc(Br)cc1Oc1ccc(Br)cc1Br	> 100 µM (inactive)	–	inhibition ([2]; at 3.125 µM): 4.84%
N/C(Cc1ccc(Cl)cc1)=N\OC(=O)c1cccc2ccccc12	44.3 µM	99.6	–
Cc1cccc(/C(N)=N/OC(=O)c2ccc(F)cc2)c1	> 100 µM (inactive)	23.4	–
CC(C)Sc1nc(N)nc(-c2cccs2)c1C#N	> 100 µM (inactive)	–	inhibition ([2]; at 1.563 µM): 14.6%
